The results in this text go back to US20230255910A1, “USE OF A CINNAMEIN COMPOSITION FOR THE TREATMENT OF GLYCINE ENCEPHALOPATHY AND UREA CYCLE DISORDERS” (Rush University Medical Center, priority 2020, published 2023).

Molecules are shown by their SMILES.

Series [1] in a line: Observation of side effects during drug treatment. The format is in vivo, C57/BL6 mice. Conditions: 50 mg/kg body wt/d daily via gavage, during drug treatment (14 d). How it is done:
(§1) C57/BL6 mice (8-10 week-old) received lentiviral GLDC shRNA (1×107 IFU/mouse in 100 μl Hank's Balanced Salt Solution or HBSS) once via tail-vein injection. The group of control mice received only 100 μl HBSS via tail-vein injection. Oral administration of cinnamein occurred from 7 d after lenti-GLDC shRNA injection. Mice were treated with 50 mg/kg body wt/d of cinnamein daily via gavage. Cinnamein (Sigma) was solubilized in 100 μl 0.5% methyl cellulose before gavage. Therefore, one group of lenti-GLDC shRNA-insulted mice were also treated with 100 μl 0.5% methyl cellulose as vehicle control. For comparison, one group of lenti-GLDC shRNA-insulted mice were also treated with 50 mg/kg body wt/d of cinnamic acid daily via gavage.
(§2) On 14 d of treatment, mice were sacrificed, and level of glycine was measured in serum and brain.

The test system of series [2] is lenti-GLDC shRNA-insulted mice. Put plainly: Open field test of locomotor activities in lenti-GLDC shRNA-insulted mice. Format: in vivo, C57/BL6 mice. Conditions: 50 mg/kg body wt/d daily via gavage, after 10 d of treatment, FIG. 1A-D. How it is done: C57/BL6 mice (8-10 week old) received lentiviral GLDC shRNA (1×107 IFU/mouse in 100 μl HBSS) once via tail-vein injection. Therefore, control mice also received 100 μl HBSS via tail-vein. From 7 d after lenti-GLDC shRNA injection, mice were treated with cinnamein (50 mg/kg body wt/d) and cinnamic acid (50 mg/kg body wt/d) daily via gavage. After 10 d of treatment, locomotor activities were monitored by open field (FIG. 1A, heat map; FIG. 1B, distance traveled; FIG. 1C, velocity; FIG. 1D, center zone frequency). Results are mean+SEM of five mice per group. *p<0.05; **p<0.01; ***p<0.001.
C57/BL6 mice (8-10 week-old) received lentiviral GLDC shRNA (1×107 IFU/mouse in 100 μl Hank's Balanced Salt Solution or HBSS) once via tail-vein injection. The group of control mice received only 100 μl HBSS via tail-vein injection. Oral administration of cinnamein occurred from 7 d after lenti-GLDC shRNA injection. Mice were treated with 50 mg/kg body wt/d of cinnamein daily via gavage. Cinnamein (Sigma) was solubilized in 100 μl 0.5% methyl cellulose before gavage. […]
After 10 d of treatment with cinnamein and cinnamic acid, mice were monitored for locomotor activities by open field test. […] Each mouse was placed individually on the center of the arena and the performance was monitored by the live video tracking system.

In series [3] the test system is lenti-GLDC shRNA-insulted mice. Put plainly: Barnes maze, spatial learning and memory in lenti-GLDC shRNA-insulted mice. The format is in vivo, C57/BL6 mice. Conditions: 50 mg/kg body wt/d daily via gavage, after 10 d of treatment; for latency in reaching the target hole: FIG. 2B; for errors in reaching the target hole: FIG. 2C. How it is done:
C57/BL6 mice (8-10 week old) received lentiviral GLDC shRNA (1×107 IFU/mouse in 100 μl HBSS) once via tail-vein injection. Therefore, control mice also received 100 μl HBSS via tail-vein. From 7 d after lenti-GLDC shRNA injection, mice were treated with cinnamein (50 mg/kg body wt/d) and cinnamic acid (50 mg/kg body wt/d) daily via gavage. After 10 d of treatment, spatial learning and memory was monitored by Barnes maze (A, heat map; B, latency; C, errors). Results are mean+SEM of five mice per group. *p<0.05; **p<0.01; ***p<0.001.
as §1
Next, mice were monitored for spatial learning and memory by Barnes maze. Here, mice were trained for two consecutive days followed by examination on day three. During training, the overnight food-deprived mouse was placed in the middle of the maze in a 10 cm high cylindrical start chamber. After 10 s, the start chamber was removed to allow the mouse to move around the maze to find out the color food chips in the baited tunnel.

Series [4] deals with lenti-GLDC shRNA-insulted mice. Put plainly: Level of glycine in serum and cortex of lenti-GLDC shRNA-insulted mice (fluorometric assay kit). Conditions: 50 mg/kg body wt/d daily via gavage, 14 d of treatment; for level of glycine in serum: FIG. 3A; for level of glycine in cortex: FIG. 3B. Format: in vivo, C57/BL6 mice. How it is done:
C57/BL6 mice (8-10 week old) received lentiviral GLDC shRNA (1×107 IFU/mouse in 100 μl Hank's Balanced Salt Solution or HBSS) once via tail-vein injection. Therefore, control mice also received 100 μl HBSS via tail-vein. From 7 d after lenti-GLDC shRNA injection, mice were treated with cinnamein (50 mg/kg body wt/d) and cinnamic acid (50 mg/kg body wt/d) daily via gavage. After 14 d of treatment, the level of glycine was measured in serum (A) and cortex (B) by using a fluorometric assay kit (Biovision). Each mouse sample was run in triplicate. Results are mean+SEM of five mice per group. ***p<0.001.
as §1, §2

For series [5], the system named is B6EiC3Sn a/A-Otc^spf-ash/J (Otc^spf-ash) mice. Put plainly: Barnes maze, cognitive functions in OTC knockout mice (animal model of urea cycle disorders). The format is in vivo. Conditions: 50 mg/kg body weight/d orally via gavage for 15 days, FIG. 4A-C. As for the experimental part: Eight-week old B6EiC3Sn a/A-Otc^spf-ash/J (Otc^spf-ash) mice were treated with cinnamein (50 mg/kg body weight/d) and cinnamic acid (50 mg/kg body weight/d) orally via gavage for 15 days followed by monitoring cognitive functions by Barnes maze (FIG. 4A, representative track plots summarizing the overall activity of mice on the apparatus recorded with a Noldus camera and visualized by Ethovision XT software; FIG. 4B, errors; FIG. 4C, latency). Results are mean+SEM of three mice per group. ***p<0.001.
Cognitive deficit is common in individuals with inherited urea cycle disorders (UCDs). […] See for example Qureshi et al., “Ornithine Transcarbamylase Deficiency in Mutant Mice I. Studies on the Characterization of Enzyme Defect and Suitability as Animal Model of Human Disease,” (1979) Pediat. Res. 13: pp 807-811; Hodges et al., “The spf^ash mouse: A missense mutation in the ornithine transcarbamylase gene also causes aberrant mRNA splicing,” (1989) Proc. Natl. Acad. Sci. USA 86: pp. 4142-4146. OTC knockout B6EiC3Sn a/A-Otc^spf-ash/J (Otc^spf-ash) mice were obtained from the Jackson Lab. Cinnamein was purchased from Sigma. Cinnamic acid was bought from Spectrum Chemicals.

`O=C(C=Cc1ccccc1)OCc1ccccc1` [cinnamein, 3-phenyl-2-propenoic acid phenylmethyl ester]: the “side effects including hair loss, weight loss, diarrhea, or untoward infection” value in series [1] is reported as “No other side effects were observed”. For the same compound, in series [2], the “locomotor activities (heat map, total distance travelled, velocity, center zone frequency)” value was “improved locomotor activities”. In addition, in series [3], the “latency in reaching the target hole” value is listed as “significantly reduced” and the “errors in reaching the target hole” value is “significantly reduced”. In series [4], the “level of glycine in serum” value is “significantly inhibited” and the “level of glycine in cortex” value is listed as “significantly inhibited”. For the same compound, in series [5], the “cognitive functions (Barnes maze errors and latency)” value is “recovers cognitive functions”.
On to `O=C(O)C=Cc1ccccc1` [cinnamic acid], for which, in series [1], the “side effects including hair loss, weight loss, diarrhea, or untoward infection” value is “No other side effects were observed”. For the same compound, the “locomotor activities (heat map, total distance travelled, velocity, center zone frequency)” value in series [2] is “improved locomotor activities”. Moreover, in series [3], the “latency in reaching the target hole” value is on record as “significantly reduced” and the “errors in reaching the target hole” value is “significantly reduced”. In addition, in series [4], the “level of glycine in serum” value was “significantly inhibited” and the “level of glycine in cortex” value is recorded as “significantly inhibited”. Moreover, the “cognitive functions (Barnes maze errors and latency)” value in series [5] is “recovers cognitive functions”.
